Assay [1] deals with Callosobruchus chinensis. Put plainly: Insecticidal activity against adult of Callosobruchus chinensis assessed as mortality at 5 ug/insect applied topically after 24 hr relative to control. It counts as functional.
The test system of assay [2] is Callosobruchus chinensis. Put plainly: Insecticidal activity against adult of Callosobruchus chinensis assessed as mortality at 1 ug/insect applied topically after 24 hr relative to control. It is filed as functional.
For assay [3], the system named is Callosobruchus chinensis. As to the kind of experiment: Insecticidal activity against adult of Callosobruchus chinensis assessed as mortality at 0.5 ug/insect applied topically after 24 hr relative to control. It counts as functional.
The subject of assay [4] is Callosobruchus chinensis. Put plainly: Insecticidal activity against adult of Callosobruchus chinensis assessed as mortality at 0.1 ug/insect applied topically after 24 hr relative to control. It counts as functional.
The test system of assay [5] is Tetranychus urticae. Put plainly: Insecticidal activity against adult of Tetranychus urticae (two-spotted spider mite) in kidney bean leaf assessed as egg hatching ability after 1 week. It counts as functional, organism-based.
Assay [6] concerns Nephotettix cincticeps. As to the kind of experiment: Insecticidal activity against 2nd-instar nymphs of Nephotettix cincticeps (green rice leafhopper) in rice seedlings assessed as lethality at 10 mg/ml after 1 week. It is filed as functional, organism-based.
For assay [7], the system named is Henosepilachna vigintioctopunctata. As to the kind of experiment: Insecticidal activity against second-instar larvae of Henosepilachna vigintioctopunctata assessed as lethality at 10 mg/ml measured everyday for 1 week. It counts as functional, organism-based.
Assay [8] relates to Crocidolomia. As to the kind of experiment: Insecticidal activity against second-instar larvae of Crocidolomia binotalis in cabbage leaf assessed as growth inhibition at 10 mg/ml after 2 days. It counts as functional, organism-based.
The subject of assay [9] is Plutella xylostella. As to the kind of experiment: Insecticidal activity against 2nd-instar larvae of Plutella xylostella (diamondback moth) in cabbage leaf assessed as lethality and growth inhibition at 0.1 mg/ml after 2 days. It is filed as functional, organism-based.
For assay [10], the system named is Mamestra brassicae. Put plainly: Insecticidal activity against third-instar larvae of Mamestra brassicae in cabbage leaf assessed as feeding deterrent and growth inhibition at 10 mg/ml after 2 days. It counts as functional, organism-based.

The structures appear in SMILES notation. Activity calls are given as the source filed them. The rule behind the calls is not given here.

Regarding `CCCCCCCCCCC(O)C1CCC(C2CCC(C(O)CCCCCCCC[C@H](O)CC3=C[C@@H](C)OC3=O)O2)O1` (stereo partly drawn) [ASIMICIN], the Activity in assay [1] is listed as 100%; in assay [2], 85%; in [3] it was 60%; in assay [4], 15%.
On to `CCCCCCCCCC[C@H](O)[C@H]1CC[C@H]([C@H]2CC[C@H]([C@H](O)CCCCCCCCCCCCC3=C[C@H](C)OC3=O)O2)O1` [BULLANIN], for which the Activity in assay [1] is recorded as 90%; in assay [2], 25%; in assay [3], 10%; in [4], 0%.
For `CCCCCC[C@H](O)CCC[C@H](O)[C@H]1CC[C@H]([C@H]2CC[C@H]([C@H](O)CCCCCCCCCCCCC3=C[C@H](C)OC3=O)O2)O1` [SQUAMOCIN], the result in assay [5] was inactive. The result in assay [6], in assay [7], in [8], in [9] and in assay [10] was Active. For the same compound, the Activity is 90% in [1], 29% in [2], 20% in assay [3] and 0% in assay [4].

For the origin of these results see ChEMBL document CHEMBL3045125, “Isolation and Insecticidal Activity of Three Acetogenins from Seeds of Pond Apple, Annona glabra L” (1991).
